Assay [1] concerns HEK293. Put plainly: cells. Conditions: Homo sapiens.
Assay [2] concerns HEK293. Put plainly: cells. The settings on record: Homo sapiens. This is another data set of the same source.
In assay [3] the target is T1, Sentrin-specific protease 7 (Homo sapiens, UniProt Q9BQF6).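 Also: Luminescence-based dose-response confirmation of ultra-high-throughput screening hits, measuring inhibition of SENP7.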
T1 sequence (Q9BQF6 whole entry): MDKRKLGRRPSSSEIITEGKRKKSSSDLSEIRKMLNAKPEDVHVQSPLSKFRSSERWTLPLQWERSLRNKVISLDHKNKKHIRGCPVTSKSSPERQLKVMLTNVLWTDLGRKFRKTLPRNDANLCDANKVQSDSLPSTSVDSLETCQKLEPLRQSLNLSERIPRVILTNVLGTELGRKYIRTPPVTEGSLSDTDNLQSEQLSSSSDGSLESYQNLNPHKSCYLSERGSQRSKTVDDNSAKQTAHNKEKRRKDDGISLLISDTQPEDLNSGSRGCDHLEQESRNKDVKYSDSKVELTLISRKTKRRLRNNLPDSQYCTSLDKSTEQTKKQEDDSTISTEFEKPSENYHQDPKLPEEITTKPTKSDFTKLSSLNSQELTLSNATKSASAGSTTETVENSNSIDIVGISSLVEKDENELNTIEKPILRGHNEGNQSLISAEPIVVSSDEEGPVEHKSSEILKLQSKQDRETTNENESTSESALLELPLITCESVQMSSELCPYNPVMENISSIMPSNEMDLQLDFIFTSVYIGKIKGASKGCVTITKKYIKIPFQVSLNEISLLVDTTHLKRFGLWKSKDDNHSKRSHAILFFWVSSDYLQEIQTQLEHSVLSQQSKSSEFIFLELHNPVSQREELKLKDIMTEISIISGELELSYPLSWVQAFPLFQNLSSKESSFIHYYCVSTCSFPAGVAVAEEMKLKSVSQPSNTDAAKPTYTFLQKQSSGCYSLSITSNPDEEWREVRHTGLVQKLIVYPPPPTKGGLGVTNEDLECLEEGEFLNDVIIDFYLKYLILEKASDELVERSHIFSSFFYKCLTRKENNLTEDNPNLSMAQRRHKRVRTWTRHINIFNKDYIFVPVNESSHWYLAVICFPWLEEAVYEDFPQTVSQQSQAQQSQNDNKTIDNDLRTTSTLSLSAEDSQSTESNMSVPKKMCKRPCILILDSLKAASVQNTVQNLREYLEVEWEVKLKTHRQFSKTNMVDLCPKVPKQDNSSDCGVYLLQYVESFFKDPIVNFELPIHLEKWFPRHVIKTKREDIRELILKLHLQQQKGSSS
It counts as functional.

For assay [4], the target named is T2, Sentrin-specific protease 8 (Homo sapiens, UniProt Q96LD8).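 Also: luminescence read-out of SENP8 inhibition, dose-response confirmation following an ultra-high-throughput screen.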
T2 sequence (Q96LD8 whole entry): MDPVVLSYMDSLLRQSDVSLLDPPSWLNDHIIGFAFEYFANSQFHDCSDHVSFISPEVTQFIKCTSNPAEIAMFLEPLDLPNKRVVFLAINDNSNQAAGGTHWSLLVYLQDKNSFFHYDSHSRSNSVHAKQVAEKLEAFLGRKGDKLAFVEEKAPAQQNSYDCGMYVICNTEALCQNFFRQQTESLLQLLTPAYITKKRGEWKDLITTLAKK
In kind it is functional.

The target of a further assay is T3, Caspase-3 (Homo sapiens, UniProt P42574).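 Also: Dose-response selectivity test against caspase-3 for candidate inhibitors of sentrin-specific proteases (SENPs).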
T3 sequence (P42574 whole entry): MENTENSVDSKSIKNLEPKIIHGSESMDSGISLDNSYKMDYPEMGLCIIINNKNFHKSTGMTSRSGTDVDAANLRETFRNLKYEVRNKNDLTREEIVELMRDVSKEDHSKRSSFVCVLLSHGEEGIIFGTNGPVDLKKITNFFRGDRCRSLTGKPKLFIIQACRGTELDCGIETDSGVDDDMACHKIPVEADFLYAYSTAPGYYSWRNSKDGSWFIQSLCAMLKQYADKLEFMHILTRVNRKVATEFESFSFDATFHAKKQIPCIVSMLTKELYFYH
It counts as functional.

Assay [5] concerns the target T4, Sentrin-specific protease 6 (Homo sapiens, UniProt Q9GZR1).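 Also: Luminescence-based dose-response confirmatory assay of SENP6 inhibition, following up an ultra-high-throughput screen.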
T4 sequence (Q9GZR1 whole entry): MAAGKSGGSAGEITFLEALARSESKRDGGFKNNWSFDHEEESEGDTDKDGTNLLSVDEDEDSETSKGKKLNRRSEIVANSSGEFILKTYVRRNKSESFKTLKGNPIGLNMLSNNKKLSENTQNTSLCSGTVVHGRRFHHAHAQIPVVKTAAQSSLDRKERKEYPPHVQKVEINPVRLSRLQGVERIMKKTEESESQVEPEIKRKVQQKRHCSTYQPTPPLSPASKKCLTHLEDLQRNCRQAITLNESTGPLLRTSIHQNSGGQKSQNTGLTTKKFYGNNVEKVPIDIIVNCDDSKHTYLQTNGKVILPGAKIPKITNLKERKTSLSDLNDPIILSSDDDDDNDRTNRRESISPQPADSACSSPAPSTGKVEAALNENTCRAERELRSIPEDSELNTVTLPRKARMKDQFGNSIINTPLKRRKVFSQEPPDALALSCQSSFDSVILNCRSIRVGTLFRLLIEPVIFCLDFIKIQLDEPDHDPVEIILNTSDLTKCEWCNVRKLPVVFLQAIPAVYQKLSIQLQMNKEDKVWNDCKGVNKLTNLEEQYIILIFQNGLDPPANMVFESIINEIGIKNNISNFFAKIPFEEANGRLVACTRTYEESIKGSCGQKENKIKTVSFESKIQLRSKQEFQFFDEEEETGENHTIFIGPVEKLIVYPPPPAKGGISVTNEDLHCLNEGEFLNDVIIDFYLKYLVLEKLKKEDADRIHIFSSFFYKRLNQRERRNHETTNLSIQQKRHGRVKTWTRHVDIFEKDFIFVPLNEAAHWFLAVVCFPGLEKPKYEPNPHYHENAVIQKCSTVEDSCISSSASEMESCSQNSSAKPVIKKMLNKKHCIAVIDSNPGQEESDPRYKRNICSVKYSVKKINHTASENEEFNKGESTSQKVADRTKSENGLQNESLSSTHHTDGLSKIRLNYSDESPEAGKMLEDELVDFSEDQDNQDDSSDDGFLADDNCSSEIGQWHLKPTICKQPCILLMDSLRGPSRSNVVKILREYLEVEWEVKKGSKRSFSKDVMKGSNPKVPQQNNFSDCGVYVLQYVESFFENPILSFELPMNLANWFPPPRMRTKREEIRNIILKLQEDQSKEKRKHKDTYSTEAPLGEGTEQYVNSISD
It counts as functional.

Assay [6] concerns the target T5, Alkaline phosphatase, tissue-nonspecific isozyme (Homo sapiens, UniProt P05186).
T5 sequence (P05186 whole entry): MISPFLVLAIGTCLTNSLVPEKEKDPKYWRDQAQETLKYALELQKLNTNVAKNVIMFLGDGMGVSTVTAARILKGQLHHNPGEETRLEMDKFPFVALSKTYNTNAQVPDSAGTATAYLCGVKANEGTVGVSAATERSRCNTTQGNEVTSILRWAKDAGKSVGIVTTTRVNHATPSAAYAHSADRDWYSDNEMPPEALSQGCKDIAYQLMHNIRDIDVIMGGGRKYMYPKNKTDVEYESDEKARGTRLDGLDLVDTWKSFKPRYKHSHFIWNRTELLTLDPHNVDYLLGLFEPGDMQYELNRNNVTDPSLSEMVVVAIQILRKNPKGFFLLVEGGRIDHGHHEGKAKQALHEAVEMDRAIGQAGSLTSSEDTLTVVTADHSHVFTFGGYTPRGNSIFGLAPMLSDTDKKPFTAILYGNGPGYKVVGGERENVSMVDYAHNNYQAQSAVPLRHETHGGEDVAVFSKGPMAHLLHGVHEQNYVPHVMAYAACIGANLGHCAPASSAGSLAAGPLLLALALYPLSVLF
In words: TNAP enzyme inhibition by screening hits, dose response, selectivity assay for mouse IAP inhibitor project, biochemical, human TNAP, uHTS hits (AID 488906). In kind it is functional.

Assay [7] has as its target Intestinal-type alkaline phosphatase (Homo sapiens, UniProt P09923). Put plainly: inhibition of human intestinal alkaline phosphatase – biochemical, dose response (AID 488876). It counts as functional.
In assay [8] the target is Intestinal-type alkaline phosphatase (Mus musculus, UniProt P24822). Put plainly: PubChem AID 488785. It counts as functional.
Sequence of Intestinal-type alkaline phosphatase (Mus musculus, UniProt P24822) (P24822 whole entry): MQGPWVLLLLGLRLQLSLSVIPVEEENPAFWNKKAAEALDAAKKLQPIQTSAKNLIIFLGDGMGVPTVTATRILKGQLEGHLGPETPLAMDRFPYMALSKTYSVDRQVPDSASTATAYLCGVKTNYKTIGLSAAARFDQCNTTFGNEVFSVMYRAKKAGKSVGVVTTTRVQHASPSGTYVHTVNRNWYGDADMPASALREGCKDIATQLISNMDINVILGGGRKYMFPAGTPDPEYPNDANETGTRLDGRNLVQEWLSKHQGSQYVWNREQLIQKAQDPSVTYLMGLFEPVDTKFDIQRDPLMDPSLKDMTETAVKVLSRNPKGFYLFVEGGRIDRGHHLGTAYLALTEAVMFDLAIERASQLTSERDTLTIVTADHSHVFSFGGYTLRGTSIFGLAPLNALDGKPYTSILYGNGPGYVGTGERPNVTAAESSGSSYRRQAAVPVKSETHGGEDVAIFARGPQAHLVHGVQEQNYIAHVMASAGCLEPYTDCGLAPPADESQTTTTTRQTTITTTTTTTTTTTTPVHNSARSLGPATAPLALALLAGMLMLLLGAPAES
Assay [9] in a line: decrease of insulin promoter-GFP reporter – imaging, high-content screening, mouse beta cells (AID 1628). It counts as functional. The settings on record: MIN6.
In assay [10] the target is DNA dC->dU-editing enzyme APOBEC-3A (Homo sapiens, UniProt P31941). Put plainly: Dose Response confirmation of small molecule APOBEC3A DNA Deaminase Inhibitors via a fluorescence-based single-stranded DNA deaminase assay. [Related pubchem assays (depositor defined):AID493011, AID493024]. In kind it is functional.
Sequence of DNA dC->dU-editing enzyme APOBEC-3A (P31941 whole entry): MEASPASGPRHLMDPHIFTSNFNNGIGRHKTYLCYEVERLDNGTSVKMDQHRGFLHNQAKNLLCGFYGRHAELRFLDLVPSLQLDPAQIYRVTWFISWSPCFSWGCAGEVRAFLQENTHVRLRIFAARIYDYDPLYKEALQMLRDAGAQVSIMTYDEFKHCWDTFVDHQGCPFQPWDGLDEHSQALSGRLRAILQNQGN
For another assay, the system named is INS1. In words: INS-1E survival protection against cytokine death – cell-based, luminescence, retest, dose response (AID 449756).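 Also: cell death triggered by IL-1 beta plus TNF-alpha plus IFN-gamma mixture; protective hits raise ATP signal compared with cytokine alone wells.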 It counts as functional. The settings on record: Rattus norvegicus.
The nature of assay [11]: Trypanosoma cruzi growth suppression in host cells – NIH3T3 host cells, beta-gal luminescence, confirmation (AID 2044).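 Also: intracellular parasites grown in NIH/3T3 mouse fibroblasts as host cells; luminescent beta-galactosidase reporter signal from transgenic T. cruzi replicating inside host cells; inhibitors lower the luminescence signal.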 It counts as functional, cell-based.
Assay [12] in a line: NIH3T3 cell viability loss – ATP luminescence, mouse fibroblasts, counter-screen, dose response (AID 2010).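 Also: cells exposed to compound for about 90 hours before reading.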 In kind it is functional, cell-based. On the technique in general: A counterscreen serves to expose hits that act by an unwanted route or on another target.
The target of assay [13] is DNA dC->dU-editing enzyme APOBEC-3G (Homo sapiens, UniProt Q9HC16). It counts as functional.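 Also: Dose-response counterscreen measuring inhibition of APOBEC3G DNA deaminase activity, run while confirming APOBEC3A inhibitors.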
Sequence of DNA dC->dU-editing enzyme APOBEC-3G (Q9HC16 whole entry): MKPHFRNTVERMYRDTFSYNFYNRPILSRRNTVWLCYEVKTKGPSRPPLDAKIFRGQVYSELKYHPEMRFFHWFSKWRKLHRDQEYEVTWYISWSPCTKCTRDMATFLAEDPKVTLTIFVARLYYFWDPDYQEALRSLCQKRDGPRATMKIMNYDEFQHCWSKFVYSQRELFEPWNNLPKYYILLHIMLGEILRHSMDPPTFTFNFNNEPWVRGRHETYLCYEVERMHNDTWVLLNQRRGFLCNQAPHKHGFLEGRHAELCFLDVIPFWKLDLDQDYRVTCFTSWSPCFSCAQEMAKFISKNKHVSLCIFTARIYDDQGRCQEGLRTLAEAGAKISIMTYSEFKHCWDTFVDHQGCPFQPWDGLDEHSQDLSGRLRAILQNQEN
Assay [14] in a line: MIN6 cell viability loss – mouse insulinoma, cytotoxicity control, dose response (AID 2122).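 Also: confirmatory high-throughput counterscreen run to flag cytotoxic compounds.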 In kind it is functional.
A short description of assay [15]: Luminescence Cell-Based Dose Response HTS to Identify Activators of Luciferase Translation or Activity in H4 […] Cells. [Related pubchem assays: 1829 (Project Summary), 1814 (Primary HTS)]. It counts as functional.
Another assay concerns H4. Put plainly: Luminescence Cell-Based Dose Response HTS to Identify Activators of 5'UTR Stem-Loop Driven Prion Protein mRNA Translation in H4 Neuroglioblastoma Cells. [Related pubchem assays: 1829 (Project Summary), 1814 (Primary HTS)]. It counts as functional. The settings on record: Homo sapiens.
A short description of assay [16]: blockers of HIV-1 envelope-mediated cell-cell fusion – cherry-pick, dose response (AID 652057). It counts as functional, cell-based.
The nature of assay [17]: blockers of HIV-1 ZM109 envelope-driven cell-cell fusion – HeLa effector, CEM target cells, luciferase, cherry-pick, dose response (AID 652058).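 Also: luciferase signal from HIV-1 Env mediated cell-cell fusion of effector and target cells.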 It counts as functional, cell-based.
A short description of assay [18]: non-specific 3'UTR reporter inhibition in Clone20-Shn3RL – cell-based, Renilla luciferase, cherry-picked, counter-screen for Shn3 inhibitor project, dose response (AID 624133). It counts as functional.
A short description of assay [19]: HIV-1 AD8 envelope cell-cell fusion blockers – cherry-pick, dose response (AID 652062).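 Also: luciferase signal from cell-cell fusion driven by HIV-1 clade B AD8 Env; potency is for inhibitors of fusion seen as a drop in luminescence.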 It counts as functional, cell-based.
Assay [20] is described as follows: reduction of Shn3 3'UTR-driven luciferase in osteoblasts – cell-based, Clone20 osteoblasts, firefly luciferase, cherry-picked, dose response (AID 624132).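 Also: firefly luciferase luminescence from reporter carrying the Shn3 3'UTR in osteoblasts.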 It counts as functional.
The nature of assay [21]: off-target signal loss in HeLa-CEM21 co-culture – HeLa F-luc CTL cells, cherry-picked, counter-screen for HIV-1 Env fusion inhibitor project, dose response (AID 652040).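 Also: potency for signal decrease marking cytotoxic or nonspecific inhibition.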 It counts as functional, cell-based.
Assay [22] is described as follows: loss of viability in HepG2 cells – cell-based, CellTiter-Glo, cherry-picked, cytotoxicity control for Shn3 inhibitor project, dose response (AID 624134). In kind it is functional. For orientation: In ATP-based viability assays light output follows the ATP content of the culture.
Assay [23] is described as follows: viability loss in CEM21 cells – cell-based, CellTiter-Glo luminescence, cherry-picked, cytotoxicity control for viral fusion inhibitor project, dose response (AID 652042).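 Also: potency for signal decrease meaning cytotoxicity.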 It counts as functional.

The values that follow come from ChEMBL document CHEMBL1201862, “PubChem BioAssay data set” (2004).

Activity calls are given as the source filed them.

Sequence of Intestinal-type alkaline phosphatase (Homo sapiens, UniProt P09923) (P09923 whole entry): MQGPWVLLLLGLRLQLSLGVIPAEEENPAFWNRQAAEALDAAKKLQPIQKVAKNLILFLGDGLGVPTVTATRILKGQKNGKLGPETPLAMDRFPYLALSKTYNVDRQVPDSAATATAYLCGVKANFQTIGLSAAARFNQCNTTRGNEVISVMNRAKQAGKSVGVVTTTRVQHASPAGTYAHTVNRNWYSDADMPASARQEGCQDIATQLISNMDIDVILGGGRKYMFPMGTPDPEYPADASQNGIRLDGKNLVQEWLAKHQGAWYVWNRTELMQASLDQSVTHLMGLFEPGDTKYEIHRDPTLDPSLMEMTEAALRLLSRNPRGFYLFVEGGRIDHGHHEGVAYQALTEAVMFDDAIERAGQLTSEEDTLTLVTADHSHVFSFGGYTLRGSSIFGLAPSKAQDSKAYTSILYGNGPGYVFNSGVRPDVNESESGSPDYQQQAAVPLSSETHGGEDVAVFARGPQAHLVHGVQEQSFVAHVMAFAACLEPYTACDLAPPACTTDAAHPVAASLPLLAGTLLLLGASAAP

In general, EC50 refers to the concentration needed to bring the measured effect to its halfway point. Consider `CCCCC1(CC(=O)OCC)C(=O)N(c2ccccc2)N(c2ccccc2)C1=O`, for which the EC50 in the assay with HEK293 [1] and in the assay on HEK293 [2] was > 59.6 µM (inactive) in each case.
One may read the IC50 as the point on the concentration scale where inhibition reaches its midpoint. Turning to `COc1ccc(COC(=O)c2c(C)nn(-c3ccccc3)c2Cl)cc1`, the IC50 in assay [3] was 19.4 µM (active); in assay [4], 98.1 µM (active); at Caspase-3 it was 40.2 µM (active); in [5], 73.3 µM (active).
On to `NS(=O)(=O)c1cc(C(=O)N=Nc2c(O)[nH]c3ccccc23)ccc1Cl`, for which the values for the IC50 in assay [6], in assay [7] and in assay [8] were > 100 µM (inactive), > 100 µM (inactive) and 42.4 µM (active), respectively.
What is called AC50 is the concentration giving half of the maximal activity seen. As for `CCCCCCCC[n+]1c(C)n(-c2ccccc2)c2ccc(NC(C)=O)cc21`, the IC50 in [9] was < 0.25 µM (active); in [10], 1.44 µM (active); in assay [13], 2.66 µM (active); in assay [14] it was < 0.25 µM (active). Besides, the AC50 in the assay with INS1 was 2.41 µM (active). The results for the EC50 in assay [11] and in assay [12] were 0.768 µM (active) and > 60 µM (not active), respectively.
For `COc1ccc(-c2cc(O)cc(O)c2)cc1`, the IC50 in [3] is 12.3 µM (active); in assay [4], 48 µM (active); on Caspase-3, 30.9 µM (active); in [5] it was 41.1 µM (active). In addition, the figures for the EC50 (in assay [15]; in the assay with H4) were 3.8 µM (active) and 4.12 µM (active), respectively.
As to `CCCCCOc1ccc(C(=O)CCC(=O)NNC(=O)c2ccncc2)cc1`, the IC50 in assay [6] is > 100 µM (inactive); in [7], 25.6 µM (active); in assay [8], 14.7 µM (active).
On to `NC(CCc1ccccc1)c1csc(NC(=O)Nc2ccccc2Oc2ccccc2)n1` (stereo not given), for which the EC50 with HEK293 [1] and with HEK293 [2] was > 59.6 µM (inactive) throughout. Besides, the AC50 in assay [16] was 0.824 µM (active); in assay [17] it was 3.38 µM (active); in [18], 13.6 µM (active); in assay [19] it was 4.98 µM (active); in assay [20], 7.18 µM (active); in [21], 1.65 µM (active). Also, the figures for the AC50 in [22] and in [23] were 13.5 µM (active) and 11.4 µM (active), respectively.
